How the values were obtained:
Assay type in all cases: in vivo
Abutilon theophrasti [1] = assay: Weeding effect in post-emergence stage; settings: Dose 15 g/ha; level of fresh weight growth control rate
Summary of the method: (§1)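 Post-emergence spray tower; 2-3 leaf plants (2 wk after sowing, soil pots, greenhouse). Formulation: acetone, Tween 80, methyl oleate EC 1.5 liter/ha as synergist, water. Rates 500–7.5 g/ha. Growth control rate read at 3 wk; n=3, averaged.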

Digitaria sanguinalis = assay: Weeding effect in post-emergence stage; settings: Dose 15 g/ha; level of fresh weight growth control rate
Summary of the method: as §1

Alopecurus japonicus = assay: Weeding effect in post-emergence stage; settings: Dose 15 g/ha; level of fresh weight growth control rate
Summary of the method: as §1

Setaria viridis [2] = assay: Weeding effect in post-emergence stage; settings: Dose 15 g/ha; level of fresh weight growth control rate
Summary of the method: as §1

Eleusine indica = assay: Weeding effect in post-emergence stage; settings: Dose 15 g/ha; level of fresh weight growth control rate
Summary of the method: as §1

Veronica didyma Tenore = assay: Weeding effect in pre-emergence stage; settings: 30 g/ha, 4 weeks
Summary of the method: (§2)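 Pots were kept in the greenhouse for 4 weeks and then rated for growth control on activity-level criteria. Spraying took place immediately after sowing at application rates of 500 to 7.5 g/ha, using an acetone/tween 80 formulation diluted with water, on seeds under 0.5-2 cm of soil.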

Abutilon theophrasti [3] = assay: Weeding effect in pre-emergence stage; settings: 30 g/ha, 4 weeks
Summary of the method: as §2

Descurainia sophia = assay: Weeding effect in pre-emergence stage; settings: 30 g/ha, 4 weeks
Summary of the method: as §2

Setaria viridis [4] = assay: Weeding effect in pre-emergence stage; settings: 30 g/ha, 4 weeks
Summary of the method: as §2

Capsella bursa-pastoris = assay: Weeding effect in pre-emergence stage; settings: 30 g/ha, 4 weeks
Summary of the method: as §2

Amaranthus retroflexus = assay: Weeding effect in pre-emergence stage; settings: 30 g/ha, 4 weeks
Summary of the method: as §2

Echinochloa crusgalli = assay: Weeding effect in post-emergence stage; settings: Dose 15 g/ha; level of fresh weight growth control rate
Summary of the method: as §1

cotton = assay: Pre-emergence stage, crop selectivity; settings: 30 g/ha, 4 weeks
Summary of the method: as §2

corn = assay: Pre-emergence stage, crop selectivity; settings: 30 g/ha, 4 weeks
Summary of the method: as §2

Soybeans = assay: Pre-emergence stage, crop selectivity; settings: 30 g/ha, 4 weeks
Summary of the method: as §2

Peanut = assay: Pre-emergence stage, crop selectivity; settings: 30 g/ha, 4 weeks
Summary of the method: as §2

Row | Compound | Weeding effect in post-emergence stage, Abutilon theophrasti (Abutilon theophrasti [1]) | Weeding effect in post-emergence stage, Digitaria sanguinalis (Digitaria sanguinalis) | Weeding effect in post-emergence stage, Alopecurus japonicus (Alopecurus japonicus) | Weeding effect in post-emergence stage, Setaria viridis (Setaria viridis [2]) | Weeding effect in post-emergence stage, Eleusine indica (Eleusine indica) | activity level (growth control rate) Veronica didyma Tenore (Veronica didyma Tenore) | activity level (growth control rate) Abutilon theophrasti (Abutilon theophrasti [3]) | activity level (growth control rate) Descurainia sophia (Descurainia sophia) | activity level (growth control rate) Setaria viridis (Setaria viridis [4]) | activity level (growth control rate) Capsella bursa-pastoris (Capsella bursa-pastoris) | activity level (growth control rate) Amaranthus retroflexus (Amaranthus retroflexus) | Weeding effect in post-emergence stage, Echinochloa crusgalli (Echinochloa crusgalli) | plant damage level Cotton (cotton) | plant damage level Corn (corn) | plant damage level Soybeans (Soybeans) | plant damage level Peanut (Peanut)
1 | C[C@@H](O/N=C/c1cc(-n2c(=O)cc(C(F)(F)F)n(C)c2=O)c(F)cc1Cl)C(=O)OCc1ccccc1 [283(R)] | 5 (Level 5: growth control rate is above 85%) | 5 (Level 5: growth control rate is above 85%) | 5 (Level 5: growth control rate is above 85%) | 5 (Level 5: growth control rate is above 85%) | 5 (Level 5: growth control rate is above 85%) | 5 (Level 5: growth control rate is above 85%) | 5 (Level 5: growth control rate is above 85%) | 5 (Level 5: growth control rate is above 85%) | 5 (Level 5: growth control rate is above 85%) | 5 (Level 5: growth control rate is above 85%) | 5 (Level 5: growth control rate is above 85%) | 5 (Level 5: growth control rate is above 85%) | 0 (Level 0: growth control rate is less than 5%) | 0 (Level 0: growth control rate is less than 5%) | 0 (Level 0: growth control rate is less than 5%) | 0 (Level 0: growth control rate is less than 5%)
2 | C[C@@H](O/N=C/c1cc(-n2c(=O)cc(C(F)(F)F)n(C)c2=O)c(F)cc1Cl)C(=O)OCc1ccccn1 [301(R)] | 5 (Level 5: growth control rate is above 85%) | 5 (Level 5: growth control rate is above 85%) | 5 (Level 5: growth control rate is above 85%) | 5 (Level 5: growth control rate is above 85%) | 5 (Level 5: growth control rate is above 85%) | 5 (Level 5: growth control rate is above 85%) | 5 (Level 5: growth control rate is above 85%) | 5 (Level 5: growth control rate is above 85%) | 5 (Level 5: growth control rate is above 85%) | 5 (Level 5: growth control rate is above 85%) | 5 (Level 5: growth control rate is above 85%) | 5 (Level 5: growth control rate is above 85%) | 0 (Level 0: growth control rate is less than 5%) | 0 (Level 0: growth control rate is less than 5%) | 0 (Level 0: growth control rate is less than 5%) | 0 (Level 0: growth control rate is less than 5%)
3 | CC[C@@H](O/N=C/c1cc(-n2c(=O)cc(C(F)(F)F)n(C)c2=O)c(F)cc1Cl)C(=O)OC [315(R)] | 5 (Level 5: growth control rate is above 85%) | 5 (Level 5: growth control rate is above 85%) | 5 (Level 5: growth control rate is above 85%) | 5 (Level 5: growth control rate is above 85%) | 5 (Level 5: growth control rate is above 85%) | 5 (Level 5: growth control rate is above 85%) | 5 (Level 5: growth control rate is above 85%) | 5 (Level 5: growth control rate is above 85%) | 5 (Level 5: growth control rate is above 85%) | 5 (Level 5: growth control rate is above 85%) | 5 (Level 5: growth control rate is above 85%) | 5 (Level 5: growth control rate is above 85%) | 0 (Level 0: growth control rate is less than 5%) | 0 (Level 0: growth control rate is less than 5%) | 0 (Level 0: growth control rate is less than 5%) | 0 (Level 0: growth control rate is less than 5%)
4 | COC[C@@H](O/N=C/c1cc(-n2c(=O)cc(C(F)(F)F)n(C)c2=O)c(F)cc1Cl)C(=O)OC [333(R)] | 5 (Level 5: growth control rate is above 85%) | 5 (Level 5: growth control rate is above 85%) | 5 (Level 5: growth control rate is above 85%) | 5 (Level 5: growth control rate is above 85%) | 5 (Level 5: growth control rate is above 85%) | 5 (Level 5: growth control rate is above 85%) | 5 (Level 5: growth control rate is above 85%) | 5 (Level 5: growth control rate is above 85%) | 5 (Level 5: growth control rate is above 85%) | 5 (Level 5: growth control rate is above 85%) | 5 (Level 5: growth control rate is above 85%) | 5 (Level 5: growth control rate is above 85%) | 0 (Level 0: growth control rate is less than 5%) | 0 (Level 0: growth control rate is less than 5%) | 0 (Level 0: growth control rate is less than 5%) | 0 (Level 0: growth control rate is less than 5%)
5 | COC(=O)[C@@H](C)O/N=C/c1cc(-n2c(=S)cc(C(F)(F)F)n(C)c2=O)c(F)cc1Cl [349(R)] | 5 (Level 5: growth control rate is above 85%) | 5 (Level 5: growth control rate is above 85%) | 5 (Level 5: growth control rate is above 85%) | 5 (Level 5: growth control rate is above 85%) | 5 (Level 5: growth control rate is above 85%) | 5 (Level 5: growth control rate is above 85%) | 5 (Level 5: growth control rate is above 85%) | 5 (Level 5: growth control rate is above 85%) | 5 (Level 5: growth control rate is above 85%) | 5 (Level 5: growth control rate is above 85%) | 5 (Level 5: growth control rate is above 85%) | 5 (Level 5: growth control rate is above 85%) | 0 (Level 0: growth control rate is less than 5%) | 0 (Level 0: growth control rate is less than 5%) | 0 (Level 0: growth control rate is less than 5%) | 0 (Level 0: growth control rate is less than 5%)
